In patent US7622269B2, “Methods of screening tyramine- and octopamine-expressing cells for compounds and compositions having potential insect control activity” (Tyratech, Inc., priority 2004, dated 2009):
Values joined by “and” are separate entries in the source; they are usually repeats but may differ in a detail not shown here. Identical values can stand only once. One block for each compound: values may come before it.

What was measured:
[1] = system: Drosophila melanogaster wild type strain; experiment: Topical toxicity bioassay, wild type fruit fly; type: in vivo; conditions: for Wild/type LD50 values / LD50, D. melanogaster: topical application; for Wild/type LD50 values: mortality 24 hours after treatment; for % Mortality at LD50 of wild/type Drosophila melanogaster strain, Wild/type: topical, 24 hour; for LD50, D. melanogaster: 24 hours
[2] = target: T1, OAMB (Drosophila melanogaster, UniProt Q7JQF1, L268I/L487I/L521I/T180I); experiment: Saturation binding of 3H-yohimbine to membranes of COS-7 cells expressing OAMB; parameters: Oligonucleotides designed to amplify the open reading frame of Drosophila melanogaster OAMB; expressed in transfected cells
T1 sequence (Q7JQF1 other isoform, or with tags, fused parts or gaps T180I/L268I/L487I/L524I): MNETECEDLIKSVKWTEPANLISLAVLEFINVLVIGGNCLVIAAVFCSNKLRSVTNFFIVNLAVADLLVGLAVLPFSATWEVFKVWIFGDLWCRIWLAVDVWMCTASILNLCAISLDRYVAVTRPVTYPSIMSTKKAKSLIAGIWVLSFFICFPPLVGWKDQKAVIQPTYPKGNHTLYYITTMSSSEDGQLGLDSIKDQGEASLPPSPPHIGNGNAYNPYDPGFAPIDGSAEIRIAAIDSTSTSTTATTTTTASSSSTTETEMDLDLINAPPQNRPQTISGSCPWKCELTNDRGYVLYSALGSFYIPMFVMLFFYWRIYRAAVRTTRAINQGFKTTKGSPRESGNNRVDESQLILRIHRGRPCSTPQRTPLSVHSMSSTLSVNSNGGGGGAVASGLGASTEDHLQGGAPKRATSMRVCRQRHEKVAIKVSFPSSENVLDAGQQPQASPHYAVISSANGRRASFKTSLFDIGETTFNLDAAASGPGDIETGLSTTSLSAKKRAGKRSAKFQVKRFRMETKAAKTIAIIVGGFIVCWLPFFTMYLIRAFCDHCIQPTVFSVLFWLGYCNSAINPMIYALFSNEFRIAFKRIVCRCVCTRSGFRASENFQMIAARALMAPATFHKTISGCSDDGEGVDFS

[3] = target: T2, Pa oa1 (Periplaneta americana, UniProt Q7YWB7); experiment: Saturation binding of 3H-yohimbine to membranes of COS-7 cells expressing Pa oa1
T2 sequence (Q7YWB7 entry or part of it): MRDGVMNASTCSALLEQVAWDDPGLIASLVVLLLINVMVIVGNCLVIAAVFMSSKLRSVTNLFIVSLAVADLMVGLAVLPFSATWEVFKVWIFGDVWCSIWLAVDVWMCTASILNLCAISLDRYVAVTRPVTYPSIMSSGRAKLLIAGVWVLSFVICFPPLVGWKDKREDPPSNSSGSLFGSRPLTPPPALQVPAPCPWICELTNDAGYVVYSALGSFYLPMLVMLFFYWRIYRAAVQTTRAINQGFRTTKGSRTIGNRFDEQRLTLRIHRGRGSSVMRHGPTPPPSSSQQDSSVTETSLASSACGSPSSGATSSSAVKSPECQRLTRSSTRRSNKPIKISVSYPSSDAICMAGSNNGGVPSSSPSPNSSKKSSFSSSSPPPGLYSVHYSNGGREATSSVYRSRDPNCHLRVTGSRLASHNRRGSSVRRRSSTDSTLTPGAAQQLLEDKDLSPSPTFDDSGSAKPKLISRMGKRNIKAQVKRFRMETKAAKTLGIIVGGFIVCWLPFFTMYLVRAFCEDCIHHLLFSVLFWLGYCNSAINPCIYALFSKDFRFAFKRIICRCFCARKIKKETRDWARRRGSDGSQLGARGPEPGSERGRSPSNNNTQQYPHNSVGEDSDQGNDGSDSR

[4] = target: T2, Pa oa1; experiment: cAMP levels in HEK-293 cells expressing Pa oa1; type: cell-based
Method: (§1) Twenty-four hours before cell treatment, about 300,000 HEK-293 cells are plated in about 1 ml media with about 0.8 mg G418/ml into multi-well dishes (e.g., 12-well, 4.5 cm^2). For cell treatment, the media is aspirated and about 1 ml PBS with about 300 μM IBMX and the test reagent is added. […] Cells are incubated with about 70% ethanol for about 1 h at about −20° C. The cellular debris is centrifuged and then the supernatant is removed and lyophilized to dryness. The amount of cAMP in the extract is determined by using a cAMP binding protein from the ^3H-cAMP Biotrak assay system (Amersham Biosciences) as per the manufacturer's instructions. To test the effects of calcium chelation on cAMP levels, the cells are incubated with about […] BAPTA/AM (Calbiochem Biochemicals, La Jolla, Calif.) for about 10 min before the addition of the test reagents.
(§2) To determine cAMP levels in cells, about 24-hours before cell treatment, 300,000 HEK-293 cells are plated in 1 mL media with 0.8 mg G418/mL into multi-dishes (4.5 cm2). For cell treatment, the media is aspirated and 1 mL PBS with 300 μM IBMX and the test reagent is added. Cells are incubated at 37° C. for 20 min, and the PBS is then aspirated. Cells are incubated with 70% ethanol for 1 hour at −20° C. The cellular debris is centrifuged and then the supernatant is removed and lyophilized to dryness. The amount of cAMP in the extract is determined by using a cAMP binding protein from the ^3H-cAMP Biotrak assay system (Amersham Biosciences, Piscataway, N.J.) as per the manufacturer's instructions.

[5] = target: T2, Pa oa1; experiment: Intracellular calcium (Fura-2) in HEK-293 cells expressing Pa oa1; type: cell-based
[6] = target: T2, Pa oa1; experiment: Competitive binding against 3H-yohimbine, Pa oa1 membranes; conditions: Ki, about 2 nM 3H-yohimbine
[7] = target: T1, OAMB; experiment: biochemical; type: binding; parameters: Oligonucleotides designed to amplify the open reading frame of Drosophila melanogaster OAMB; expressed in transfected cells
[8] = system: control HEK-293 cells; experiment: cAMP levels in control HEK-293 cells transfected with pCDNA3 without insert; type: cell-based, human; conditions: up to about 100 μM
Method: as §1
To determine which second messenger signaling pathways octopamine could affect through the Pa oa1 receptor, HEK-293 cells are stably transfected with pCDNA3-Pa oa1 or pCDNA3 without an insert as a control.

[9] = system: control HEK-293 cells; experiment: Intracellular calcium in control HEK-293 cells transfected with empty pCDNA3; type: cell-based, human; conditions: about 10 μM
[10] = target: T1, OAMB; experiment: Specific binding of 3H-yohimbine to OAMB membranes in presence of plant essential oil; parameters: Oligonucleotides designed to amplify the open reading frame of Drosophila melanogaster OAMB; expressed in transfected cells; conditions: 50 μM test chemical, 4 nM 3H-yohimbine
Method: (§3) The binding activity of ^3H-yohimbine to membranes expressing Pa oa1 or OAMB is performed in the presence and absence of three structurally related plant essential oil monoterpenoids, which are selected based on their insecticidal activity, the absence or presence and location of the hydroxyl group and a spacing group within the molecule. Membrane protein (10 μg) expressing Pa oa1 is incubated with 4 nM ^3H-yohimbine in the presence and absence of 50 μM of the test chemical. The specific activity is calculated as the difference between counts in the presence and absence of test chemical. Specific binding is calculated by determining nonspecific binding with 50 μM tested plant essential oils and subtracting nonspecific binding from total binding.

[11] = target: T2, Pa oa1; experiment: Specific binding of 3H-yohimbine to Pa oa1 membranes in presence of plant essential oil; conditions: for relative potency as inhibitor of 3H-yohimbine binding, Pa oa1 vs OAMB: 50 μM; for effect on specific binding of 3H-yohimbine: 50 μM test chemical, 4 nM 3H-yohimbine
Method: as §3

[12] = system: American cockroach; experiment: Topical toxicity bioassay, American cockroach; type: in vivo, Periplaneta americana; conditions: for LD50, P. Americana: topical application, 24 hours
Method: Acetonic solutions of plant essential oils are prepared and different concentrations of each, that give from 10%-100% mortality, are applied by topical application. Controls are treated with the same volume (0.5 μl/insect) of acetone. Replicates, with 5 insects per replicate, are used for each concentration. The mortality is calculated 24 hours after treatment. Data are subjected to probit analysis to determine LD50 value for each compound.

[13] = target: T1, OAMB; experiment: cAMP levels in HEK-293 cells expressing OAMB; type: cell-based; parameters: Oligonucleotides designed to amplify the open reading frame of Drosophila melanogaster OAMB; expressed in transfected cells; conditions: 50 μM, 300 μM IBMX
Method: as §2

[14] = target: T1, OAMB; experiment: Intracellular calcium (Fura-2) in HEK-293 cells expressing OAMB; conditions: 25 μM
Method: Cells are collected by scraping and are suspended at about 750,000 cells/ml in HBSS with about 5 μM Fura-2 AM (Sigma-Aldrich).

[15] = 3H-yohimbine 0.5 to 50 nM, 50 μM phentolamine for nonspecific binding

Structure (SMILES): CCC(=O)OCCc1ccccc1 [2-phenylethyl propionate]
Wild/type LD50 values [1]: 14.50 μg/fly
% Mortality at LD50 of wild/type Drosophila melanogaster strain, Wild/type [1]: 53.3%

Structure (SMILES): COC(=O)[C@@H]1[C@H]2C[C@H]3c4[nH]c5ccccc5c4CCN3C[C@@H]2CC[C@@H]1O [3H-yohimbine]
Kd [2, 15]: ~0.043 µM and 0.043 µM
Bmax ([2]; COS-7 membranes): about 8.04 pmol/mg
Bmax ([2]; Table B): 8.04 pmole receptor/mg protein
Kd [3, 15]: ~0.0284 µM and 0.0284 µM
Bmax for specific binding ([3]; COS-7 membranes): about 11.8 pmol/mg protein
affinity of Pa oa1 to the radioligand higher than OAMB ([3]; Pa oa1 vs OAMB): about 1.5 fold
Bmax ([3]; Table B): 11.80 pmole receptor/mg protein

Structure (SMILES): CC(=O)OCOC(=O)CN(CC(=O)OCOC(C)=O)c1ccccc1OCCOc1ccccc1N(CC(=O)OCOC(C)=O)CC(=O)OCOC(C)=O [BAPTA/AM]
cAMP levels in absence vs presence of BAPTA/AM ([4]; about 20 μM BAPTA/AM, basal, about 100 nM or about 1 μM octopamine): not found to be statistically different
effect on increase in free intracellular calcium by about 1 μM octopamine ([5]; about 20 μM BAPTA/AM): inhibit the increase in free intracellular calcium

Ki [6]: 0.012 ± 0.003 µM
Structure (SMILES): CN(C)CCCN1c2ccccc2Sc2ccc(Cl)cc21 [Chlorpromazine]

Structure (SMILES): NCCc1ccc(O)c(O)c1 [Dopamine]
Ki [6]: 56.6 ± 8 µM

Structure (SMILES): CCN(CC)CCNC(=O)c1cc(Cl)c(N)cc1OC [Metoclopramine]
Ki [6]: 4.76 ± 1.32 µM

Structure (SMILES): Cc1ccc(N(CC2=NCCN2)c2cccc(O)c2)cc1 [Phentolamine]
Ki [6]: 0.023 ± 0.009 µM

Structure (SMILES): NCCc1c[nH]c2ccc(O)cc12 [Serotonin]
Ki [6]: 77.4 ± 11.6 µM

Structure (SMILES): NCCc1ccc(O)cc1 [Tyramine, tyramine]
Ki [6]: ~31 µM and 31 µM
Ki [7]: ~33.8 µM
effect on cAMP levels [8]: neither DL-octopamine nor tyramine at concentrations up to about 100 μM has significant effects on cAMP levels
EC50 ([4]; 300 μM IBMX, read-out: EC50 for increase in cAMP): ~97.7 µM
fold induction at 100 µM ([4]; HEK293, 20 min, about 100 μM amine, read-out: increase in cAMP): ~215
cAMP concentration ([4]; about 10 nM amine, basal about 0.48 pmol cAMP): about 0.50 pmol cAMP
cAMP ([4]; about 1 μM amine): about 1.2 pmol
effect on intracellular calcium levels [9]: Neither about 10 μM octopamine nor about 10 μM tyramine modulates intracellular calcium levels
concentration that increases intracellular calcium [5]: ≥ 1 µM
effect on intracellular calcium ([5]; about 100 nM): does not modulate intracellular calcium levels
increase in tyramine concentration compared to about 10 nM octopamine required for similar response ([5]; calcium and cAMP assays): about 100 fold

Structure (SMILES): OCC=Cc1ccccc1 [cinnamic alcohol, 3-phenyl-2-propen-1-ol]
effect on specific binding of 3H-yohimbine [10]: decrease the binding of ^3H-yohimbine
relative potency as inhibitor of 3H-yohimbine binding, Pa oa1 vs OAMB [11]: more potent against OAMB than Pa oa1
effect on specific binding of 3H-yohimbine [11]: decrease the binding of ^3H-yohimbine
LD50, P. Americana [12]: 98 μg/insect
LD50, D. melanogaster [1]: 1.65 μg/insect
Wild/type LD50 values [1]: 1.65 μg/fly
% Mortality at LD50 of wild/type Drosophila melanogaster strain, Wild/type [1]: 30.0%
effect on basal cAMP level [13]: slight increase in cAMP level
effect on basal cAMP level ([4]; 50 μM, 300 μM IBMX): slight increase in cAMP level
changes in [Ca2+]i level [14]: increase [Ca^2+]i through Pa oa1 and OAMB
rank of potency based on increased [Ca2+]i level [14]: the most potent agent tested in this example
speed of increase in [Ca2+]i [14]: slower than the other two chemicals
changes in [Ca2+]i level ([5]; 25 μM): increase [Ca^2+]i through Pa oa1 and OAMB

Structure (SMILES): C=CCc1ccc(O)c(OC)c1 [eugenol, 2-methoxy-4-(2-propenyl)phenol]
effect on specific binding of 3H-yohimbine [10]: decrease the binding of ^3H-yohimbine
relative potency as inhibitor of 3H-yohimbine binding, Pa oa1 vs OAMB [11]: more potent inhibitors against Pa oa1 than OAMB
effect on specific binding of 3H-yohimbine [11]: decrease the binding of ^3H-yohimbine
more toxic against American cockroach than cinnamic alcohol ([12]; in vivo): about 2 fold
more toxic against American cockroach than trans-anethole ([12]; in vivo): about 27 fold
LD50, P. Americana [12]: 47 μg/insect
more toxic against wild type flies than trans-anethole ([1]; in vivo): 3 fold
LD50, D. melanogaster [1]: 1.90 μg/insect
Wild/type LD50 values [1]: 1.90 μg/fly
% Mortality at LD50 of wild/type Drosophila melanogaster strain, Wild/type [1]: 53.3%
effect on basal cAMP level [13]: slightly decreased cAMP level
inhibition at 50 µM ([4]; HEK293, 20 min, 50 μM, 300 μM IBMX, basal cAMP, read-out: decrease in cAMP level): 24%
changes in [Ca2+]i level [14]: increase [Ca^2+]i through Pa oa1 and OAMB
changes in [Ca2+]i level ([5]; 25 μM): increase [Ca^2+]i through Pa oa1 and OAMB
rank of potency based on increased [Ca2+]i level ([5]; 25 μM): the most potent agent tested in this example

Structure (SMILES): CC(C)=CCCC(C)=CCO [geraniol, 3,7-dimethyl-2,6-octadien-1-ol]
Wild/type LD50 values [1]: 10.50 μg/fly
% Mortality at LD50 of wild/type Drosophila melanogaster strain, Wild/type [1]: 60.0%

Structure (SMILES): COC(=O)c1ccccc1O [methyl salicylate, 2-hydroxybenzoic acid methyl ester]
Wild/type LD50 values [1]: 7.50 μg/fly
% Mortality at LD50 of wild/type Drosophila melanogaster strain, Wild/type [1]: 40.0%

Structure (SMILES): Cc1ccc(C(C)C)cc1 [p-cymene, methyl(1-methylethyl)benzene]
Wild/type LD50 values [1]: 25.00 μg/fly
% Mortality at LD50 of wild/type Drosophila melanogaster strain, Wild/type [1]: 40.0%

Structure (SMILES): CC=Cc1ccc(OC)cc1 [trans-anethole, 1-methoxy-4-(1-propenyl)benzene]
effect on specific binding of 3H-yohimbine [10]: does not have a significant effect on binding to OAMB
effect on specific binding of 3H-yohimbine [11]: decreases the ^3H-yohimbine binding activity to only Pa oa1
increase in cAMP level ([13]; basal cAMP): 22%
changes in [Ca2+]i level [14]: increases
speed of increase in [Ca2+]i ([5]; 25 μM): slower than eugenol and cinnamic alcohol
